From patent publication US10112926B2 (priority 2014, dated 2018)
Structures can show the parent of a compound that is named as a salt. Where two headings read alike, the source gives them in different places.

Tests used:
PI 4-kinase beta = PI 4-kinase beta (Homo sapiens (Human), UniProt Q9UBF8); conditions: read-out: Assay D PI4Kβ IC50
PI 3-kinase beta = PI 3-kinase beta (Homo sapiens (Human), UniProt P42338); conditions: read-out: Assay B PI3Kβ IC50
Vps34 = Vps34 (Homo sapiens (Human), UniProt Q8NEB9); conditions: read-out: Assay C VPS34 IC50
[1] = target: T1, PI 3-kinase beta (Rat-1 pBABEpuro Myr-HA-hp110 beta cells) (Homo sapiens (Human), UniProt P42338); test: cell-based
T1 sequence (P42338 whole entry, looked up): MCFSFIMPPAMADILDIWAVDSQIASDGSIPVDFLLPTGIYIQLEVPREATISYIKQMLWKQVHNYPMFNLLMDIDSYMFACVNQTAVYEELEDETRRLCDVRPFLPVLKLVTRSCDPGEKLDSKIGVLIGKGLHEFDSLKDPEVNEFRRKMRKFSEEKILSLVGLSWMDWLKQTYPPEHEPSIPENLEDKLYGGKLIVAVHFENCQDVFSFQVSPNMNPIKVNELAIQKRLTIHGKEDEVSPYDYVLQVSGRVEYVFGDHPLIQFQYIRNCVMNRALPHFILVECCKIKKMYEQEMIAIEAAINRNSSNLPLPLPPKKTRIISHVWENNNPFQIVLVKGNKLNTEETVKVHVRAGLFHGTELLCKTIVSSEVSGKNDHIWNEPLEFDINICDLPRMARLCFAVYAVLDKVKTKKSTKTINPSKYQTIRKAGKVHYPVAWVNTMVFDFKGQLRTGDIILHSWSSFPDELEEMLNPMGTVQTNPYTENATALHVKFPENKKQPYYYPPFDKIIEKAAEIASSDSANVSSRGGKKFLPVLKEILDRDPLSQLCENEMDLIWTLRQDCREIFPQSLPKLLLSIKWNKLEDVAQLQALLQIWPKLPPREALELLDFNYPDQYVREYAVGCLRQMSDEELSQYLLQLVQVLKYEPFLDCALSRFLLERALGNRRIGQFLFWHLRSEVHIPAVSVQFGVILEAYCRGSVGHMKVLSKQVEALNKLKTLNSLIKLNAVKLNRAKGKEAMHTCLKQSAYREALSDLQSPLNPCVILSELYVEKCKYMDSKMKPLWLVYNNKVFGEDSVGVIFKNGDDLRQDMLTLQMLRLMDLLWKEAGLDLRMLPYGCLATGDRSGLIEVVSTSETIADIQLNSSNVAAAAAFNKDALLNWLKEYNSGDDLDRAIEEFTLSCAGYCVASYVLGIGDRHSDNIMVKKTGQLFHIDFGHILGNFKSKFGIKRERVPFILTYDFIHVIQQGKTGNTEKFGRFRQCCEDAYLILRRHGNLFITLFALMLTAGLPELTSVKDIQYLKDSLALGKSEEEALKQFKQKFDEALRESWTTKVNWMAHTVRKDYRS
T1 sequence (Q63787 whole entry partner, looked up): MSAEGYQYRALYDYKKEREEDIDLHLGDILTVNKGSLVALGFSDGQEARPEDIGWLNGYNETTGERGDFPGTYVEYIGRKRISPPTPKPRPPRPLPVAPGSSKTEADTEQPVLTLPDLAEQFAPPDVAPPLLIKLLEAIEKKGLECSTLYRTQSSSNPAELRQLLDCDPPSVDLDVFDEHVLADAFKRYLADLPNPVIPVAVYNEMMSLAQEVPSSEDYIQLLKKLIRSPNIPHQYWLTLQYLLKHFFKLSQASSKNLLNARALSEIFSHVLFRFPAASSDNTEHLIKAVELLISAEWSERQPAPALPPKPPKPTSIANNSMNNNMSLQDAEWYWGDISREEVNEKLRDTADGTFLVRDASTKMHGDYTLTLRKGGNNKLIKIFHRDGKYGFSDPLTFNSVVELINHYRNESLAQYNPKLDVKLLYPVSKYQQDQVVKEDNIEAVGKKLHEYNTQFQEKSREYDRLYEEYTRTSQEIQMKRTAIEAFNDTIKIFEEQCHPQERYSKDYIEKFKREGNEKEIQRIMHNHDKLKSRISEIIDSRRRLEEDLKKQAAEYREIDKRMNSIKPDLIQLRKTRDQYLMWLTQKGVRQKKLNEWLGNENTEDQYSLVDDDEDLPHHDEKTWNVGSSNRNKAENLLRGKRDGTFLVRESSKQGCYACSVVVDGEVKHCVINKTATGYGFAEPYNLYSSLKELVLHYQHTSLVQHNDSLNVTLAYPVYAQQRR
Method: (§1) Cellular Assays for PI 3-Kinase Alpha (H2), Beta (I2) and Delta (J2): HTRF (Homogeneous Time Resolved Fluorescence) Format
(§2) All cell lines were cultivated in complete growth medium (DMEM high glucose GlutaMAX™ Pyruvate, 10% (v/v) fetal bovine serum, 0.1 mM MEM NEAA, 25 mM HEPES, puromycin 10 μg/mL, 100 U/ml Penicillin, 100 μg/ml Streptomycin) to 90% confluency at 37° C./5% CO2/90% humidity in a humidified CO2 incubator and were split twice a week.
(§3) Semi-automated preparation of cell lysates: For low (inhibited) controls, 0.9 mM NVP-BGT226-AF-1 in 90% (v/v) DMSO was added to the compound master plate. For compound testing, the cells were seeded at a density of 4000 (Rat-1_PI3Kdelta), 8000 (Rat-1_PI3Kalpha), or 6500 (Rat-1_PI3Kbeta) cells in 30 μl complete growth medium into cell culture treated 384-well plates and were grown at 37° C./5% CO2/90% humidity for 24 h. 10 μl of the compound predilutions were transferred to the cells. After treatment with compound for 1 h, medium was removed and cells were lysed by the addition of 20 μl lysis buffer supplemented with blocking buffer. Detection of p-AKT(Ser473) was performed with the HTRF pAKT (Ser473) assay kit according to the manufacturer's instructions using 16 μl of cell lysate in a total detection volume of 20 μl.

PI 3-kinase gamma = PI 3-kinase gamma (Homo sapiens (Human), UniProt P48736)
Chain of PI 3-kinase gamma (P48736 whole entry): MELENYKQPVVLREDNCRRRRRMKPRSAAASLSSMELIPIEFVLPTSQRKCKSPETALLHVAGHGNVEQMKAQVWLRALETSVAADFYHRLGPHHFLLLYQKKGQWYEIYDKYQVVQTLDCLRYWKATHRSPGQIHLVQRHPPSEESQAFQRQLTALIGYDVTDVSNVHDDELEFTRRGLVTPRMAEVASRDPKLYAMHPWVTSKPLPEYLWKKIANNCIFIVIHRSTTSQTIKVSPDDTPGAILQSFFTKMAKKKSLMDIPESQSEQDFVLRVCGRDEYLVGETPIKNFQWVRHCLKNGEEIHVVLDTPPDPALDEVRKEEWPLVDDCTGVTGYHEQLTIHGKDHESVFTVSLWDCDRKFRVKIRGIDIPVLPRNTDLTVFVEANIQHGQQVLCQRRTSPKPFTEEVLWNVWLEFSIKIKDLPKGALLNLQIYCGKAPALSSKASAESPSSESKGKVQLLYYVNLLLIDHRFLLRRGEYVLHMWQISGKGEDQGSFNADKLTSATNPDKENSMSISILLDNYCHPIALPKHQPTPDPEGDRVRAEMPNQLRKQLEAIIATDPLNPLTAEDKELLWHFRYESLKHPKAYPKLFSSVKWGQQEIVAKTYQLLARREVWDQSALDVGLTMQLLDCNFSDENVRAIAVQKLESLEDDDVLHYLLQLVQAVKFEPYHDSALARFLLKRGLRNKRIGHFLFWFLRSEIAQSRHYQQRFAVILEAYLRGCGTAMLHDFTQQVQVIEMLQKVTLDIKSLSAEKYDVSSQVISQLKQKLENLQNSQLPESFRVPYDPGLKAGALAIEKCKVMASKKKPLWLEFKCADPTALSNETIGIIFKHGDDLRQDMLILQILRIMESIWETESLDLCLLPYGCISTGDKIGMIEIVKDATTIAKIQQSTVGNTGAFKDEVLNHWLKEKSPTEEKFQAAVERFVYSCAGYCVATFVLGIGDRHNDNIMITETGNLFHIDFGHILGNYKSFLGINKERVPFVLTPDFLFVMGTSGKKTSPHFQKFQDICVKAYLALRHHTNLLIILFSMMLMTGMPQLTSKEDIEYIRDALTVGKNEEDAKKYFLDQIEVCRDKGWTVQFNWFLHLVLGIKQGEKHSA

PI 3-kinase alpha = PI 3-kinase alpha (Homo sapiens (Human), UniProt P42336); conditions: read-out: Assay A PI3Kα IC50
mTOR = mTOR (Homo sapiens (Human), UniProt P42345); conditions: read-out: Assay G mTOR IC50
[2] = target: T2, PI 3-kinase alpha (Rat-1 pBABEpuro Myr-HA-hp110 alpha cells) (Homo sapiens (Human), UniProt P42336); test: cell-based
Method: as §1, §2, §3

[3] = target: PI 3-kinase gamma (U937 cells, MIP1α-stimulated AKT phosphorylation) (Homo sapiens (Human), UniProt P48736); conditions: read-out: Assay K2 PI3Kγ IC50
Chain of PI 3-kinase gamma (U937 cells, MIP1α-stimulated AKT phosphorylation) (P48736 whole entry): as above

[4] = target: T1, PI 3-kinase beta (Rat-1 pBABEpuro Myr-HA-hp110 beta cells); test: cell-based; conditions: Assay I PI3Kβ IC50
From the text: (§4) Cellular Assays for PI 3-Kinase Alpha (H1), Beta (I1) and Delta (J1): Surefire Format
(§5) The brand name SureFire denotes AlphaScreen assays that are adapted to quantify the phosphorylation of endogenous cellular proteins in cell lysates, by using matched antibody pairs, which consist of an anti-phospho-kinase and an anti-kinase antibody. The assay allows characterization of kinase signaling in cells as well as measurement of kinase inhibitor effects.
(§6) The p-Akt (S473) SureFire assay measures the phosphorylation of endogenous cellular Akt 1/2 at Ser473 in cell lysates. Using Rat-1 cells stably expressing myr-HA-tagged versions of the human PI3Kdelta, PI3Kalpha, or PI3Kbeta p110 catalytic subunit isoforms, the assay was developed as a two-plate protocol in a 384-well format.
(§7) For compound testing, the cells were seeded at a density of 4000 (Rat-1_PI3Kdelta), 7500 (Rat-1_PI3Kalpha), or 6200 (Rat-1_PI3Kbeta) cells in 20 μl complete growth medium into cell culture treated 384-well plates and were grown at 37° C./5% CO2/90% humidity for 24 h. Shortly before compound transfer, the complete medium was removed, 30 μl assay buffer (DMEM high glucose, 1×MEM NEAA, 10 mM HEPES, 2 mM L-glutamine, 0.1% (w/v) BSA) was added and 10 μl of the compound predilutions were transferred to the cells. […]

PI 3-kinase delta = PI 3-kinase delta (Homo sapiens (Human), UniProt O00329); conditions: read-out: Assay F PI3Kδ IC50
[5] = target: T2, PI 3-kinase alpha (Rat-1 pBABEpuro Myr-HA-hp110 alpha cells); test: cell-based; conditions: Assay H PI3Kα IC50
From the text: as §4, §5, §6, §7

Chain of PI 3-kinase beta (P42338 whole entry, looked up): as the sequence (P42338 whole entry, looked up) above
Chain of PI 3-kinase beta (P27986 whole entry partner, looked up): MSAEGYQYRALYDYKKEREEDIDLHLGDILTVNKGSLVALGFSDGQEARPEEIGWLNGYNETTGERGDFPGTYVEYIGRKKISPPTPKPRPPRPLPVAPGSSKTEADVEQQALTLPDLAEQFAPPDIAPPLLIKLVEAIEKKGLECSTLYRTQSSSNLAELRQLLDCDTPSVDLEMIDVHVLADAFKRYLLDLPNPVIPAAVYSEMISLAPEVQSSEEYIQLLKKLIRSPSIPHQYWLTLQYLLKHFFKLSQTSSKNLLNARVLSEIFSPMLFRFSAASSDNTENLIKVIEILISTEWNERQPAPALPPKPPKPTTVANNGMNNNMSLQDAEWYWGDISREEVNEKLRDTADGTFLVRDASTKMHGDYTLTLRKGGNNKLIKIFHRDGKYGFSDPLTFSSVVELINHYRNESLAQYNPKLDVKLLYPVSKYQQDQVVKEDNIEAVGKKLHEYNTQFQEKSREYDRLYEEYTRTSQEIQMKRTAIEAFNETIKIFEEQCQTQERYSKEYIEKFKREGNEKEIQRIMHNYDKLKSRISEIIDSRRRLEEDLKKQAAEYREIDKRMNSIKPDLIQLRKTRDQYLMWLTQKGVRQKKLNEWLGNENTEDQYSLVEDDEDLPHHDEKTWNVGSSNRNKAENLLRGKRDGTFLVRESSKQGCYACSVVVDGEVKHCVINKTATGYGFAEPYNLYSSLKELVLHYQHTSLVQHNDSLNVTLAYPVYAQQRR
Chain of PI 4-kinase beta (Q9UBF8 whole entry): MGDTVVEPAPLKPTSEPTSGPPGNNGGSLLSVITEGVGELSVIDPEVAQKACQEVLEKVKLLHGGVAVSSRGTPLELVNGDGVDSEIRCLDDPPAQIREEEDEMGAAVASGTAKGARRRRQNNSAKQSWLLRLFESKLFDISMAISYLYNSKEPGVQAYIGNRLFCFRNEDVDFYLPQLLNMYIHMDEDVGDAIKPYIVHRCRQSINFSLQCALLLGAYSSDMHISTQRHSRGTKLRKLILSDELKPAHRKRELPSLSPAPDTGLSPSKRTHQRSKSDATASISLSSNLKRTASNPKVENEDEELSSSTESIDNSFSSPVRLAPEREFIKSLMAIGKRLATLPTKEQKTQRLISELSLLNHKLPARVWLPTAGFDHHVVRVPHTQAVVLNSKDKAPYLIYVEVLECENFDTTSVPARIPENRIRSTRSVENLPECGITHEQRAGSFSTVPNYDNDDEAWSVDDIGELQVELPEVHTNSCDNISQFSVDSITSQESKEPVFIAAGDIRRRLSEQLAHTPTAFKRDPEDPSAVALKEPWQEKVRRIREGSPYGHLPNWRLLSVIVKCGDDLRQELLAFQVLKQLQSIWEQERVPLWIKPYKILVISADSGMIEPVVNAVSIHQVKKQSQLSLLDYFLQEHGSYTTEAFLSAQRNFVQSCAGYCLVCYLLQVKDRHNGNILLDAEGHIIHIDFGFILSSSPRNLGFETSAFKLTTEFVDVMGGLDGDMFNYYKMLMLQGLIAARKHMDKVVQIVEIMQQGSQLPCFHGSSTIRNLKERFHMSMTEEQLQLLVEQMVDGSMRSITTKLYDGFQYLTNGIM

SMILES | IC50 (PI 4-kinase beta) [µM] | IC50 (PI 3-kinase beta) [µM] | IC50 (Vps34) [µM] | IC50 (PI 3-kinase alpha) [µM] | IC50 (mTOR) [µM] | other results
Cc1cc(-c2cc(-c3cc(S(=O)(=O)N4C[C@H](C)[C@@H](O)C4)ccc3C)cnc2N)on1 (relative stereo) [Example 101.3, trans-1-((3-(6-amino-5-(3-methylisoxazol-5-yl)pyridin-3-yl)-4-methylphenyl)sulfonyl)-4-methylpyrrolidin-3-ol] | 3.6 | 5.1 | > 10 |  |  | IC50 [1]: > 10 µM
Cc1noc(-c2cc(-c3cc(S(=O)(=O)NCC(C)(C)O)ccc3C(F)(F)F)cnc2N)n1 [3-(6-amino-5-(3-methyl-1,2,4-oxadiazol-5-yl)pyridin-3-yl)-N-(2-hydroxy-2-methylpropyl)-4-(trifluoromethyl)benzenesulfonamide] |  |  |  |  |  | activity in assay E (PI 3-kinase gamma): inactive
Cc1noc(-c2cc(-c3cc(C(F)(F)F)cc(S(=O)(=O)NCC(C)(C)O)c3)cnc2N)n1 [3-(6-amino-5-(3-methyl-1,2,4-oxadiazol-5-yl)pyridin-3-yl)-N-(2-hydroxy-2-methylpropyl)-5-(trifluoromethyl)benzenesulfonamide] |  |  |  |  |  | activity in assay E (PI 3-kinase gamma): inactive
Cc1cc(-c2cnc(N)c(-c3nc(C)no3)c2)cc(S(=O)(=O)NCC(C)(C)O)c1 [3-(6-amino-5-(3-methyl-1,2,4-oxadiazol-5-yl)pyridin-3-yl)-N-(2-hydroxy-2-methylpropyl)-5-methylbenzenesulfonamide] |  |  |  |  |  | activity in assay E (PI 3-kinase gamma): inactive
Cc1ccc(S(=O)(=O)N[C@H]2CC[C@H](O)CC2)cc1-c1cnc(N)c(-c2cnn(C)c2)c1 [Example 4.1, trans 3-(6-Amino-5-(1-methyl-1H-pyrazol-4-yl)pyridin-3-yl)-N-(4-hydroxycyclohexyl)-4-methylbenzene-sulfonamide] | 3.9 | 1.6 | 6.6 | 0.28 | 9.5 | 
Cc1cc(-c2cc(-c3cc(S(=O)(=O)N[C@H]4CC[C@H](O)CC4)ccc3C)cnc2N)ccn1 [Example 4.3, trans 3-(2-Amino-2′-methyl-[3,4′-bipyridin]-5-yl)-N-(4-hydroxycyclohexyl)-4-methyl-benzenesulfonamide] | 1.7 | 7.2 | > 10 | 0.26 | 7.3 | 
Cc1nnc(-c2cc(-c3cc(S(=O)(=O)NCCC(C)(C)O)ccc3C)cnc2N)o1 [Example 5.6, 3-(6-Amino-5-(5-methyl-1,3,4-oxa-diazol-2-yl)pyridin-3-yl)-N-(3-hydroxy-3-methylbutyl)-4-methylbenzenesulfon-amide] | 7.8 | 4.5 | > 10 | 0.7 | > 10 | 
Cc1cc(-c2cc(-c3cc(S(=O)(=O)N4CC(N(C)C)C4)ccc3C)cnc2N)on1 [Example 19.19, 5-(5-((3-(dimethylamino)azetidin-1-yl)sulfonyl)-2-methylphenyl)-3-(3-methylisoxazol-5-yl)pyridin-2-amine acetic acid salt] | 8.5 |  | > 10 | 3.1 |  | IC50 [2]: > 10 µM
Cc1ccc(S(=O)(=O)NC2CC3(CC(O)C3)C2)cc1-c1cnc(N)c(-c2cn(C)nc2C)c1 (stereo not shown) [Example 26, 3-(6-Amino-5-(1,3-dimethyl-1H-pyrazol-4-yl)pyridin-3-yl)-N-(6-hydroxyspiro[3.3]heptan-2-yl)-4-methylbenzenesulfonamide] | 3.4 | 3 | > 10 | 0.22 | 0.32 | 
Cc1cccc(NS(=O)(=O)c2ccc(C)c(-c3cnc(N)c(-c4cnn(C)c4)c3)c2)n1 [Example 30, 3-(6-Amino-5-(1-methyl-1H-pyrazol-4-yl)pyridin-3-yl)-4-methyl-N-(6-methylpyridin-2-yl)benzenesulfonamide] | 3.1 | 1.5 | > 10 | 0.33 | 4.7 | 
Cc1noc(-c2cc(-c3cc(S(=O)(=O)N[C@@H]4CCNC(=O)C4)ccc3C)cnc2N)n1 [Example 37.25, (R)-3-(6-Amino-5-(3-methyl-1,2,4-oxadiazol-5-yl)pyridin-3-yl)-4-methyl-N-(2-oxopiperidin-4-yl)benzenesulfonamide] | > 10 | > 10 | > 10 | 3.8 | > 10 | 
Cc1noc(-c2cc(-c3cc(S(=O)(=O)NCCN)ccc3C)cnc2N)n1 [Example 37.29, 3-(6-Amino-5-(3-methyl-1,2,4-oxadiazol-5-yl)pyridin-3-yl)-N-(2-aminoethyl)-4-methylbenzenesulfonamide] | 7.1 | 0.91 | > 10 | 0.91 | > 10 | 
Cc1cc(-c2cc(-c3cc(S(=O)(=O)NCC4(O)CCC4)ccc3C)cnc2N)on1 [Example 37.35, 3-(6-Amino-5-(3-methylisoxazol-5-yl)pyridin-3-yl)-N-((1-hydroxycyclobutyl)methyl)-4-methylbenzenesulfonamide] |  |  | > 10 |  | > 10 | IC50 [3]: 0.101 µM
Cc1ccc(S(=O)(=O)N[C@H]2CC[C@H](O)CC2)cc1-c1cnc(N)c(-c2nc(CC(F)(F)F)no2)c1 [Example 78, trans-3-(6-Amino-5-(3-(2,2,2-trifluoroethyl)-1,2,4-oxadiazol-5-yl)pyridin-3-yl)-N-((1r,4r)-4-hydroxycyclohexyl)-4-methylbenzenesulfonamide] | 0.49 | 2.5 | > 10 |  |  | IC50 [4]: > 10 µM
Cc1ncc(-c2cc(-c3cc(S(=O)(=O)N4CC(CO)C4)ccc3C)cnc2N)s1 [Example 83.1, (1-((3-(6-Amino-5-(2-methylthiazol-5-yl)pyridin-3-yl)-4-methylphenyl)sulfonyl)azetidin-3-yl)methanol] |  | 2.5 |  | 0.4 |  | IC50 (PI 3-kinase delta): 1.3 µM
Cc1ncc(-c2cc(-c3cc(S(=O)(=O)NCC4(O)COC4)ccc3C)cnc2N)s1 [Example 83.3, 3-(6-amino-5-(2-methylthiazol-5-yl)pyridin-3-yl)-N-((3-hydroxyoxetan-3-yl)methyl)-4-methylbenzenesulfonamide] | 1.7 | 3 | 9.7 | 0.57 |  | IC50 (PI 3-kinase delta): 0.9 µM
Cc1noc(-c2cc(-c3cc(S(=O)(=O)NCC(C)(C)O)c(C)cc3C)cnc2N)n1 [Example 100] | 4.25 | 2.25 | > 10 | 0.26 |  | IC50 [4]: > 10 µM; IC50 [5]: 4.14 µM
